Biological target: T1, AR (Homo sapiens, UniProt P10275)
T1 construct: expressed in transfected cells; host or cells: CV1 cells
T1 sequence (P10275 1-920): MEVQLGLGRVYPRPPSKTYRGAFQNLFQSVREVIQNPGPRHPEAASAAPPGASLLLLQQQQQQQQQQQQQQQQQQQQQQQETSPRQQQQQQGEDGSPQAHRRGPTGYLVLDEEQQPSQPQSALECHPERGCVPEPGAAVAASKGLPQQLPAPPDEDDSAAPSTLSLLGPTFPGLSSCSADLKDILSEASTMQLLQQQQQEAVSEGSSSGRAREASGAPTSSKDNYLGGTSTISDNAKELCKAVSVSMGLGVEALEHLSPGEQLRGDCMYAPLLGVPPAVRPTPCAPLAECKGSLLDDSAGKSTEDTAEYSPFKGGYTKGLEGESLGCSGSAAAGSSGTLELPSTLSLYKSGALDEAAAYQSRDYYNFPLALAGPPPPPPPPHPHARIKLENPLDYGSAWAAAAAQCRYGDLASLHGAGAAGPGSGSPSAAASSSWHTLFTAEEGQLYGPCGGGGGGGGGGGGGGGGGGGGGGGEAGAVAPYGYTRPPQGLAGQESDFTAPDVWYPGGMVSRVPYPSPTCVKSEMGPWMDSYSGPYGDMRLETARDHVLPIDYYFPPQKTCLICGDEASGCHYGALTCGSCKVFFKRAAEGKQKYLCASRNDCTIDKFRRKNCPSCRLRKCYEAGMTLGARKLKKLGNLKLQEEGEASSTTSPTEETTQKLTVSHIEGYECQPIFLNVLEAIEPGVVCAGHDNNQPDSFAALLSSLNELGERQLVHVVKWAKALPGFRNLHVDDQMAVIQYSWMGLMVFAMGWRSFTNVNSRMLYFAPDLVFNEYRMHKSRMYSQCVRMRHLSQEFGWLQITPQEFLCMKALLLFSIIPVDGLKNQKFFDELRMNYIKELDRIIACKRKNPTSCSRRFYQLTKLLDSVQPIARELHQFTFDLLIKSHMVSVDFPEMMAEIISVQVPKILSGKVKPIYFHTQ
Test: Reporter gene assay, AR transcriptional (MMTV-Luc) in CV1 cells
Format: cell-based
Settings: pcDNA-AR + MMTV-Luc, 0.1 nM R1881 plus test compound, 24 hrs; for IC50: read-out: B1 = AR transcriptional IC50 (μM) in CV1 cells
Description: Reporter Gene Assay (IC50 determination, Table 2, B1-B3). CV1 cells were seeded into 96-well cell culture plates and transfected with Lipofectin. For AR transcriptional assays, the DNA mixture consisted of pcDNA-AR, MMTV-Luc (androgen responsive reporter gene), and Renilla-Luc (for assessing transfection efficiency and toxicity). Following overnight incubation, cells were induced with hormone (0.1 nM R1881 (synthetic AR agonist) plus increasing concentrations of test compound) for 24 hrs. Cells were lysed and luciferase activity was quantified using Dual Luciferase Reagent (DLR). IC50 determination was assessed using GraphPad Prism software.

Row | IC50 | B1 = AR transcriptional IC50 (μM) in CV1 cells | SMILES
1 | > 10 µM |  | CC1(C)CC(=O)C2=C(C1)Nc1ccc3nc(C#N)ccc3c1C2c1ccc(F)c(F)c1 (racemic) [Compound A52, (±)-12-(3,4-difluorophenyl)-9,9-dimethyl-11-oxo-7,8,9,10,11,12-hexahydrobenzo[b][4,7]phenanthroline-3-carbonitrile]
2 | > 10 µM |  | CC1(C)CC(=O)C2=C(C1)Nc1ccc3nc(C(=O)O)ccc3c1C2c1ccc(F)c(F)c1 (racemic) [Compound A80, (±)-12-(3,4-difluorophenyl)-9,9-dimethyl-11-oxo-7,8,9,10,11,12-hexahydrobenzo[b][4,7]phenanthroline-3-carboxylic acid]
3 | > 10 µM |  | Cc1ccc2c3c(ccc2n1)NC1=C(C(=O)CC(C)(C)C1)C3c1ccc(F)c(F)c1 (racemic) [Compound A81, (±)-12-(3,4-difluorophenyl)-3,9,9-trimethyl-8,9,10,12-tetrahydrobenzo[b][4,7]phenanthrolin-11(7H)-one]
4 | 9.1 µM |  | CC1(C)CC(=S)C2=C(C1)Nc1ccc3ncccc3c1C2c1ccc(F)c(F)c1 (racemic) [Compound A82, (±)-12-(3,4-difluorophenyl)-9,9-dimethyl-8,9,10,12-tetrahydrobenzo[b][4,7]phenanthroline-11(7H)-thione]
5 | 1.8 µM |  | CC1(C)CC(=O)C2=C(C1)Nc1ccc3ncncc3c1C2c1ccc(F)c(F)c1 (racemic) [Compound A86, (±)-12-(3,4-difluorophenyl)-9,9-dimethyl-8,9,10,12-tetrahydropyrimido[5,4-a]acridin-11(7H)-one]
6 | 1.3 µM |  | C[n+]1cccc2c3c(ccc21)NC1=C(C(=O)CC(C)(C)C1)C3c1ccc(F)c(F)c1 (racemic) [Compound A87, (±)-12-(3,4-difluorophenyl)-4,9,9-trimethyl-11-oxo-7,8,9,10,11,12-hexahydrobenzo[b][4,7]phenanthrolin-4-ium iodide]
7 | 1.8 µM |  | CC1(C)CC(=O)C2=C(C1)Nc1ccc3ncccc3c1C2c1ccc2nonc2c1 (stereo not shown) [Compound A30]
8 | 2.2 µM |  | CC1(C)CC(=O)C2=C(C1)Nc1ccc3ncccc3c1C2c1ccc(Cl)c(Cl)c1 (stereo not shown) [Compound A31]
9 | 0.4 µM |  | CC1(C)CC(=O)C2=C(C1)Nc1ccc3ncccc3c1C2c1ccc(F)c(F)c1 (stereo not shown) [Compound A32]
10 | 3.4 µM |  | CC1(C)CC(=O)C2=C(C1)Nc1ccc3ncccc3c1C2c1ccc(Br)cn1 (stereo not shown) [Compound A33]
11 | 1.9 µM |  | CC1(C)CC(=O)C2=C(C1)Nc1ccc3ncccc3c1C2c1ccc(Br)nc1 (stereo not shown) [Compound A34]
12 | 58 µM |  | Cc1ccc(C2C3=C(CC(C)(C)CC3=O)Nc3ccc4ncccc4c32)nc1 (stereo not shown) [Compound A35]
13 |  | Inactive | CC1(C)CC(=O)C2=C(C1)Nc1ccc3ncccc3c1C2c1ccc(S(C)(=O)=O)cc1 (stereo not shown) [Compound A36]
14 | 38 µM |  | CC1(C)CC(=O)C2=C(C1)Nc1ccc3ncccc3c1C2c1ccc(C(=O)O)cc1 (stereo not shown) [Compound A37]
15 | 3.3 µM |  | CC1(C)CC(=O)C2=C(C1)Nc1ccc3ncccc3c1C2c1ccc([N+](=O)[O-])c(O)c1 (stereo not shown) [Compound A38]
16 | 52 µM |  | CC1(C)CC(=O)C2=C(C1)Nc1ccc3ncccc3c1C2c1ccc(B(O)O)c(F)c1 (stereo not shown) [Compound A39]
17 | 1.7 µM |  | CC1(C)CC(=O)C2=C(C1)Nc1ccc3ncccc3c1C2c1ccc(F)cc1 (stereo not shown) [Compound A40]
18 | 1.9 µM |  | CC1(C)CC(=O)C2=C(C1)Nc1ccc3ncccc3c1C2c1ccc(C(F)(F)F)cc1 (stereo not shown) [Compound A41]
19 | 1.2 µM |  | CC1(C)CC(=O)C2=C(C1)Nc1ccc3ncccc3c1C2c1ccc(C#N)cn1 (stereo not shown) [Compound A56]
20 | > 10 µM |  | CC1(C)CC(=O)C2=C(C1)Nc1ccc3ncccc3c1C2c1cncnc1 (stereo not shown) [Compound A58]
21 | > 10 µM |  | CC1(C)CC(=O)C2=C(C1)Nc1ccc3ncccc3c1C2c1cnccn1 (stereo not shown) [Compound A65]
22 | 4.1 µM |  | CC1(C)CC(=O)C2=C(C1)Nc1ccc3ncccc3c1C2c1cccs1 (stereo not shown) [Compound A66, 9,9-dimethyl-12-(thiophen-2-yl)-8,9,10,12-tetrahydrobenzo[b][4,7]phenanthrolin-11(7H)-one]

More lines, now with the values behind:

Row | SMILES | IC50 | B1 = AR transcriptional IC50 (μM) in CV1 cells
23 | CC1(C)CC2=C(C(c3ccc(F)c(F)c3)c3c(ccc4ncccc34)N2)S(=O)(=O)C1 (racemic) [Compound A53, (±)-12-(3,4-difluorophenyl)-9,9-dimethyl-8,9,10,12-tetrahydro-7H-thiopyrano[2,3-b][4,7]phenanthroline 11,11-dioxide] | > 10 µM | 
24 | CN1CC(=O)C2=C(C1)Nc1ccc3ncccc3c1C2c1ccc(F)c(F)c1 (racemic) [Compound A54, (±)-12-(3,4-difluorophenyl)-9-methyl-8,9,10,12-tetrahydropyrido[4,3-b][4,7]phenanthrolin-11(7H)-one] | > 10 µM | 
25 | CC1(C)CC(=O)C2=C(C1)Oc1ccc3ccccc3c1C2c1ccc(F)c(F)c1 (racemic) [Compound A89, (±)-12-(3,4-difluorophenyl)-9,9-dimethyl-9,10-dihydro-8H-benzo[a]xanthen-11(12H)-one] | 0.4 µM | 
26 | CC1(C)CC(=O)C2=C(C1)Nc1cc(N3CCCC3)ccc1C2c1cc2ccccc2s1 (racemic) [Compound A94, (±)-9-(benzo[b]thiophen-2-yl)-3,3-dimethyl-6-(pyrrolidin-1-yl)-3,4,9,10-tetrahydroacridin-1(2H)-one] | > 10 µM | 
27 | CC1(C)CC(=O)C2=C(C1)Nc1ccc3ccccc3c1C2c1cc2ccccc2s1 (racemic) [Compound A95, (±)-12-(benzo[b]thiophen-2-yl)-9,9-dimethyl-8,9,10,12-tetrahydrobenzo[a]acridin-11(7H)-one] | 0.5 µM | 
28 | CC1(C)CC(=O)C2=C(C1)Nc1cc(N3CCCC3)ccc1C2c1ccc(Br)s1 (racemic) [Compound A98, (±)-9-(5-bromothiophen-2-yl)-3,3-dimethyl-6-(pyrrolidin-1l-yl)-3,4,9,10-tetrahydroacridin-1(2H)-one] | > 10 µM | 
29 | CC1(C)CC(=O)C2=C(C1)Nc1ccc3nccnc3c1C2c1ccc(Cl)s1 (racemic) [Compound A99, (±)-12-(5-chlorothiophen-2-yl)-9,9-dimethyl-8,9,10,12-tetrahydropyrazino[2,3-a]acridin-11(7H)-one] | 0.6 µM | 
30 | Cc1ccc(C2C3=C(CC(C)(C)CC3=O)Nc3ccc4nccnc4c32)s1 (racemic) [Compound A104, (±)-9,9-dimethyl-12-(5-methylthiophen-2-yl)-8,9,10,12-tetrahydropyrazino[2,3-a]acridin-11(7H)-one] | 2 µM | 
31 | CC1CC(=O)C2=C(C1)Nc1ccc3ncccc3c1C2c1ccc([N+](=O)[O-])cc1 (stereo not shown) [Compound A26] | 0.43 µM | 
32 | CC1(C)CC(=O)C2=C(C1)Nc1ccc3cnccc3c1C2c1ccc([N+](=O)[O-])cc1 (stereo not shown) [Compound A43] | 9.1 µM | 
33 | CC1(C)CC(=O)C2=C(C1)Nc1c(ccc3ncccc13)C2c1ccc([N+](=O)[O-])cc1 (stereo not shown) [Compound A44] |  | Inactive
34 | CC(C)C1CC(=O)C2=C(C1)Nc1ccc3ncccc3c1C2c1ccc([N+](=O)[O-])cc1 (stereo not shown) [Compound A45] | 0.3 µM | 
35 | O=C1CCC2=C1C(c1ccc([N+](=O)[O-])cc1)c1c(ccc3ncccc13)N2 (stereo not shown) [Compound A47] | 9.9 µM | 
36 | CC1(C)CC(=O)C2=C(C1)Nc1ccc3cn[nH]c3c1C2c1ccc(F)c(F)c1 (stereo not shown) [Compound A77] | > 10 µM | 
37 | Cc1ccc(C2C3=C(CC(C)(C)CC3=O)Nc3cc(N4CCCC4)ccc32)s1 (stereo not shown) [Compound A105] | > 10 µM | 
